# Laboratory results taken from patent US11730714B2, “Compounds for the treatment of neuromuscular disorders” (NMD PHARMA A/S, priority 2017, dated 2023).
# Biological target: T1, human CIC-1 channels (Homo sapiens, UniProt P35523)
# T1 construct: host or cells: CHO (Chinese hamster ovary) cells, cryopreserved, used directly after thawing
# Assay: Automated patch-clamp on human CIC-1 expressed in CHO cells (shift in half activation voltage V1/2)
# Type: cell-based
# Conditions: compound in intracellular solution vs vehicle control patches; CHO cells expressing human ClC-1
# Method: FIG. 13A-13B: FIG. 13A illustrates the voltage protocol used to evoke currents in whole cell patches of CHO cells expressing human CIC-1 channels.
# The investigatory goal of these experiments was to evaluate how compounds affect the open probability and current amplitude of human CIC-1 channels expressed in CHO cells. Experiments were performed using an automated patch clamp system that allowed high throughput testing of whole cell patches together with both intracellular and extracellular addition of compound.
# Automated whole cell patch clamp experiments were performed with the Qpatch 16 system (Sophion Bioscience, Ballerup, Denmark) at room temperature. Data acquisition and analysis were performed in the Qassay software (ver. 5.6, Odense).
# To obtain tail currents, the membrane potential was stepped to −100 mV after each test voltage for 300 ms and then relaxed to −30 mV for 2 sec between sweeps (FIG. 3). I/V relationships for whole cell instant and steady state current amplitudes were obtained by plotting average current densities at the beginning and at the end of the 300 ms step against the membrane potential (FIG. 4).
# In order to determine the relative overall open probability (Po), the instantaneous tail currents were normalized to the maximal tail current obtained following the most positive voltage step and plotted against the test voltage. Plots of normalized tail currents from each whole cell patch were then fitted to a Boltzmann function allowing determination of half activation voltages (V1/2, FIG. 5).
# Osmolality adjusted to […] using sucrose.
# Intracellular solutions contained: 80 mM […], 60 mM CsCl, 5/1 mM KOH/EGTA, 10 mM HEPES, 10 mM NaCl, pH adjusted to 7.2 with NaOH (2 M). Osmolality adjusted to ˜320 mOsm using sucrose.
# Cells used in patch clamp experiments were Chinese hamster ovary cells (CHO) constitutively expressing human CIC-1 channels. The amino acid sequence encoded by the cDNA used to create this cell line was identical to the translated sequence for GenBank accession number NM_000083.2. Cells were produced by Charles River (Catalogue CT6175, Cleveland Ohio, USA) in a cryopreserved format. Experiments were performed on the cells directly after thawing (3×10^6 cells used in each experiment).
# To evaluate the compound effect on CIC-1, when applied directly to the intracellular side of the cell membrane, the half activation voltage, V1/2, was determined from whole cell patches with compound added to the intracellular solution and then compared to V1/2 determined from control cell patches with only vehicle added to the intracellular solution. Additionally, the effect of extracellular added compound was evaluated by determine V1/2 and steady state current amplitudes before and after exchanging the extracellular solution to contain compound.
# The difference in half activation voltage of CIC-1 channels, […]V1/2, was determined as the difference between the cell patches treated intracellularly with compound and control cells patches and is reported in Table 4 below. A positive shift in […]V1/2 is reflecting CIC-1 channel inhibition by the tested compound. P-values of <0.05 is considered significant.
# T1 sequence (P35523 whole entry): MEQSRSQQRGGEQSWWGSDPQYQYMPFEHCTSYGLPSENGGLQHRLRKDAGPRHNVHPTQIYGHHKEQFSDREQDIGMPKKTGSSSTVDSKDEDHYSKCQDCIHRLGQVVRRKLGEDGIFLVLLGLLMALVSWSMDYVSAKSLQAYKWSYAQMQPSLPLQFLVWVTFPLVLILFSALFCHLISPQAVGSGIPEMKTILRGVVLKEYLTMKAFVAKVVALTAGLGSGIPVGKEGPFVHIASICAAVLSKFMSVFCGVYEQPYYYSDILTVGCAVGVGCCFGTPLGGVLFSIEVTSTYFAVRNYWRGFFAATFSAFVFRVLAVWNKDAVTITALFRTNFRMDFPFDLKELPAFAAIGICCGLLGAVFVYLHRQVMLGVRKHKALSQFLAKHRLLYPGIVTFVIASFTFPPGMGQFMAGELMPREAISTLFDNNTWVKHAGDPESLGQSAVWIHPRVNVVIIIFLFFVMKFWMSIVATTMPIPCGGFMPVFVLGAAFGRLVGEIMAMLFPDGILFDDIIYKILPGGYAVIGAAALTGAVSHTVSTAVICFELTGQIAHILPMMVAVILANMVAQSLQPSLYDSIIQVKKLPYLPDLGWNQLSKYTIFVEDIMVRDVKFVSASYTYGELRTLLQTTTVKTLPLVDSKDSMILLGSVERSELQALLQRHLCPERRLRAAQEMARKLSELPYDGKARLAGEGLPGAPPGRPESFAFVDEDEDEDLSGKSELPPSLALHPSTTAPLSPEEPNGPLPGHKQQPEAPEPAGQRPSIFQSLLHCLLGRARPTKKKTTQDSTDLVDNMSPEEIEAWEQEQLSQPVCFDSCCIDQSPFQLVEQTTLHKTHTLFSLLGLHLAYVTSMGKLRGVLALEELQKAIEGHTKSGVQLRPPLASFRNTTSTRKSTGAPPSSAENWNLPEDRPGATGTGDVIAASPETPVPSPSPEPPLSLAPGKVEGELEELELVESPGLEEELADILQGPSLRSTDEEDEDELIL
row,Compound,ΔV½ (difference in half activation voltage of ClC-1) [mV]
1,"[2H]c1cc(Br)cc([2H])c1O[C@@H](C)C(=O)O [Compound A-6, (2S)-2-[4-bromo(2,6-^2H2)phenoxy]propanoic acid]",13.0
2,"C[C@H](Oc1ccc(Br)cc1I)C(=O)O [Compound A-8, (2S)-2-(4-bromo-2-iodophenoxy)propanoic acid]",9.4
3,"O=C(O)[C@@H](Oc1ccc(Br)cc1F)C(F)F [Compound A-9, (2R)-2-(4-bromo-2-fluorophenoxy)-3,3-difluoropropanoic acid]",15.2
4,"O=C(O)[C@H](CF)Oc1ccc(Br)cc1 [Compound A-26, (2R)-2-(4-bromophenoxy)-3-fluoropropanoic acid]",19.7
5,"CC(C)[C@H](Oc1ccc(Br)cc1F)C(=O)O [Compound A-27, (2S)-2-(4-bromo-2-fluorophenoxy)-3-methylbutanoic acid]",20.2
6,"C[C@H](Oc1ccc(Cl)cc1F)C(=O)O [Compound A-38, (2S)-2-(4-chloro-2-fluorophenoxy)propanoic acid]",17.4
7,"C[C@H](Oc1ccc(Br)cc1Br)C(=O)O [Compound A-40, (2S)-2-(2,4-dibromophenoxy)propanoic acid]",5.19
8,"CC[C@H](Oc1ccc(Br)cc1F)C(=O)O [Compound A-58, (2S)-2-(4-bromo-2-fluorophenoxy)butanoic acid]",28.2
9,"C#CC[C@H](Oc1ccc(Br)cc1Br)C(=O)O [Compound A-66, (2S)-2-(2,4-dibromophenoxy)pent-4-ynoic acid]",27.4
10,"C#CC[C@H](Oc1ccc(Br)cc1Cl)C(=O)O [Compound A-67, (2S)-2-(4-bromo-2-chlorophenoxy)pent-4-ynoic acid]",37.8
11,"C#CC[C@H](Oc1ccc(Br)cc1F)C(=O)O [Compound A-69, (2S)-2-(4-bromo-2-fluorophenoxy)pent-4-ynoic acid]",32.6
12,"COC[C@H](Oc1ccc(Br)cc1Br)C(=O)O [Compound A-74, (2S)-2-(2,4-dibromophenoxy)-3-methoxypropanoic acid]",10.4
13,"[2H]CC([2H])[C@H](Oc1ccc(Br)cc1)C(=O)O (stereo partly drawn) [Compound A-76, (2S)-2-(4-bromophenoxy)(3,4-^2H2)butanoic acid]",26.2
14,"[2H][C@@](CF)(Oc1ccc(Br)cc1)C(=O)O [Compound A-82, (2R)-2-(4-bromophenoxy)-3-fluoro(2-^2H)propanoic acid]",19.0
15,"O=C(O)[C@H](CCF)Oc1ccc(Br)cc1F [Compound A-85, (2S)-2-(4-bromo-2-fluorophenoxy)-4-fluorobutanoic acid]",12.5
16,"O=C(O)[C@H](CCF)Oc1ccc(Br)cc1 [Compound A-87, (2S)-2-(4-bromophenoxy)-4-fluorobutanoic acid]",16.4
17,"O=C(O)[C@@H](Oc1ccc(Br)cc1F)C1CC1 [Compound A-89, (2S)-2-(4-bromo-2-fluorophenoxy)-2-cyclopropylacetic acid]",10.3
18,"C[C@@H](F)[C@H](Oc1ccc(Br)cc1F)C(=O)O [Compound A-95, (2R,3R)-2-(4-bromo-2-fluorophenoxy)-3-fluorobutanoic acid]",10.3

# Test system: isolated rat soleus muscles
# Assay: Recovery of nerve-stimulated force in isolated rat soleus muscles exposed to sub-maximal tubocurarine
# Type: cell-based
# Conditions: not given
# Method: Experiments were performed using rat soleus muscles from either young (4-wk-old) or adult Wistar rats (12-14-week-old). Animal handling, killing and isolation of muscle is described elsewhere All experiments were performed using normal Krebs-Ringer bicarbonate solution (NKR). In solutions with elevated Mg^2+, MgCl2 was added to NKR-solution causing minor increases in osmolarity and ionic strength. In solutions with elevated K^+, 4 mM NaCl was replaced by 4 mM KCl in the NKR.
# In all contraction experiments, isometric force production was determined and force produced during contractions was quantified by measuring the integral of the force response (AUC). Stimulation and force recordings have been described elsewhere. […] In these latter experiments, extracellular recordings of action potentials (M-waves) could be measured without temporal overlap with stimulation artefacts.
# The aim was to find compounds that by inhibition of CIC-1 channels can recover nerve-stimulated force under conditions of fatigue including conditions where fatigue is caused by compromised neuromuscular transmission. Neuromuscular transmission dysfunction can develop because of both pre- and/or post-synaptic complications in connection with a disorder or as part of neuromuscular blockade during/after surgery. In the initial series of drug testing, experiments were performed with isolated muscles in the presence of sub-maximal ACh receptor antagonist tubocurarine. Since the inclusion of tubocurarine caused a partial loss of neuromuscular transmission this experiment mimics the conditions in myasthenia gravis and neuromuscular blockade. To mimic conditions with pre-synaptic complication (Lambert Eaton syndrome, motor neuron disorder, polyneuropathy) the intact nerve-muscle preparations were incubated at elevated extracellular Mg^2+, which is known to suppress release of ACh from nerve terminals of motor neurons.
# The experiments also illustrate that field stimulation of the entire nerve-muscle preparation selectively activates the motor nerve when short-duration pulses (0.02 vs 0.2 ms) were used. In FIG. 1A the preparation was stimulated either via field stimulation or via nerve-stimulation using a suction electrode. With the suction electrode only the nerve could be stimulated. When exposed to a submaximal concentration of the ACh receptor antagonist tubocurarine (0.2 μM) a clear drop in peak force and a further decline (or fade) in force during the stimulation developed. This drop in force clearly reflected compromised neuromuscular transmission, as the decline in peak force and fading were not seen with direct stimulation of the muscle. […] Thus, loss of M-wave and force with tubocurarine reflected partial blockade of neuromuscular function. Such fading of force and M-waves during stimulation represent clinical hallmarks of both myasthenia gravis and neuromuscular blockade in connection with surgery. In FIG. 1B, observations with normal (0.2 ms) and short-duration (0.02 ms) pulses have been compared. It can be seen that only with short-duration pulses did tubocurarine cause a decline in peak force and fading (FIG. 1B). This confirms that short-duration pulses in field stimulation could be used as specific nerve-stimulation. […] Elevated extracellular Mg^2+ could thus be used to partially block neuromuscular transmission and thus be used as a model of conditions with compromised pre-synaptic function (Lambert Eaton syndrome, amyotrophic lateral sclerosis, spinal muscular atrophy). […]
Compound,50 μM % change after addition (AUC of nerve-stimulated force) [%],150 μM % change after addition (AUC of nerve-stimulated force) [%]
"CC(Oc1ccc(Cl)cc1)C(=O)Oc1ccc(Cl)cc1 (centres unmarked) [Compound C11, 4-chlorophenyl 2-(4-chlorophenoxy)propanoate]",46,54

# Biological target: T2, CIC-1 channels (Rattus norvegicus, UniProt P35524)
# T2 construct: Gm was measured in individual fibres of whole rat soleus muscles; from tissue; host or cells: soleus muscle of adult (12-14 week old) Wistar rats
# T2 sequence (P35524 1-994): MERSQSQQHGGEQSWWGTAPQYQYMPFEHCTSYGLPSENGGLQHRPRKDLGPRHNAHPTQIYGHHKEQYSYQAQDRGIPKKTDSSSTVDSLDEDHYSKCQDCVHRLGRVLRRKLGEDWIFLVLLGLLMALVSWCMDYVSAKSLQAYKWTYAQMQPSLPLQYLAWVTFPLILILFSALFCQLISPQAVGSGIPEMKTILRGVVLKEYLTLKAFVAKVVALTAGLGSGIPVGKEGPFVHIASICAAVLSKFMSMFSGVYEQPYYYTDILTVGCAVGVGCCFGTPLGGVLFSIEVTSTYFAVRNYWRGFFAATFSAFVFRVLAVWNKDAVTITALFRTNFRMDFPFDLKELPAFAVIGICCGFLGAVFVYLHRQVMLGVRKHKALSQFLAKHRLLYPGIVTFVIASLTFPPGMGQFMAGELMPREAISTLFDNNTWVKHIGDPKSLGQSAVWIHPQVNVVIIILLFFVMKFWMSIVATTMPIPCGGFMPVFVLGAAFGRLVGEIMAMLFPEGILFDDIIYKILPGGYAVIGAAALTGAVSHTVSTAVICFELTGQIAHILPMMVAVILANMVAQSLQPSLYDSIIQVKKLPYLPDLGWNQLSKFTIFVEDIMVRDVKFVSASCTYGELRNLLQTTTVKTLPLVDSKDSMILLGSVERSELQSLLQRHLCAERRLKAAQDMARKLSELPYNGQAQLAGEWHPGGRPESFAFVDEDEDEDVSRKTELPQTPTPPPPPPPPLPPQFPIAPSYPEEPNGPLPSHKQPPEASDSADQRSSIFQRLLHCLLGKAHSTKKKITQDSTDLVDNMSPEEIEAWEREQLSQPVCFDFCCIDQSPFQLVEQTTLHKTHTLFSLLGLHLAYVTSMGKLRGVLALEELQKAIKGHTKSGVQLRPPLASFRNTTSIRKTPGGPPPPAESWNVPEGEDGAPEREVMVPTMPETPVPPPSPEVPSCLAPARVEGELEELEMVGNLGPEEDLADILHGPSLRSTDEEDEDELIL
# Assay: Electrophysiological measurement of compound inhibition of CIC-1 in rat muscle (Gm, EC50)
# Type: cell-based
# Conditions: rat soleus muscle fibres, three micro-electrode Gm measurement; read-out: EC50 (inhibition of ClC-1 ion channel, Gm)
row,Compound,EC50 [µM]
1,"[2H]CC([2H])[C@H](Oc1ccc(Br)cc1)C(=O)O (stereo partly drawn) [Compound A-76, (2S)-2-(4-bromophenoxy)(3,4-^2H2)butanoic acid]",3.8 ± 2.1
2,"[2H][C@@](CF)(Oc1ccc(Br)cc1)C(=O)O [Compound A-82, (2R)-2-(4-bromophenoxy)-3-fluoro(2-^2H)propanoic acid]",5.2 ± 1.3

# Same assay, conditions: rat soleus muscle fibres; sigmoidal fit of average Gm; read-out: EC50 (inhibition of CIC-1, reduction of Gm)
row,Compound,EC50 [µM]
1,"CC(C)[C@@H](Oc1ccc(Br)cc1F)C(=O)O [Compound A-4, (2R)-2-(4-bromo-2-fluoraphenoxy)-3-methylbutanoic acid]",> 80
